Experimental findings from patent US8778966B2, “Quinolinone derivatives as PARP and tank inhibitors” (Janssen Pharmaceutica, NV, priority 2007, dated 2014) are described below.

T1 sequence (P09874 whole entry): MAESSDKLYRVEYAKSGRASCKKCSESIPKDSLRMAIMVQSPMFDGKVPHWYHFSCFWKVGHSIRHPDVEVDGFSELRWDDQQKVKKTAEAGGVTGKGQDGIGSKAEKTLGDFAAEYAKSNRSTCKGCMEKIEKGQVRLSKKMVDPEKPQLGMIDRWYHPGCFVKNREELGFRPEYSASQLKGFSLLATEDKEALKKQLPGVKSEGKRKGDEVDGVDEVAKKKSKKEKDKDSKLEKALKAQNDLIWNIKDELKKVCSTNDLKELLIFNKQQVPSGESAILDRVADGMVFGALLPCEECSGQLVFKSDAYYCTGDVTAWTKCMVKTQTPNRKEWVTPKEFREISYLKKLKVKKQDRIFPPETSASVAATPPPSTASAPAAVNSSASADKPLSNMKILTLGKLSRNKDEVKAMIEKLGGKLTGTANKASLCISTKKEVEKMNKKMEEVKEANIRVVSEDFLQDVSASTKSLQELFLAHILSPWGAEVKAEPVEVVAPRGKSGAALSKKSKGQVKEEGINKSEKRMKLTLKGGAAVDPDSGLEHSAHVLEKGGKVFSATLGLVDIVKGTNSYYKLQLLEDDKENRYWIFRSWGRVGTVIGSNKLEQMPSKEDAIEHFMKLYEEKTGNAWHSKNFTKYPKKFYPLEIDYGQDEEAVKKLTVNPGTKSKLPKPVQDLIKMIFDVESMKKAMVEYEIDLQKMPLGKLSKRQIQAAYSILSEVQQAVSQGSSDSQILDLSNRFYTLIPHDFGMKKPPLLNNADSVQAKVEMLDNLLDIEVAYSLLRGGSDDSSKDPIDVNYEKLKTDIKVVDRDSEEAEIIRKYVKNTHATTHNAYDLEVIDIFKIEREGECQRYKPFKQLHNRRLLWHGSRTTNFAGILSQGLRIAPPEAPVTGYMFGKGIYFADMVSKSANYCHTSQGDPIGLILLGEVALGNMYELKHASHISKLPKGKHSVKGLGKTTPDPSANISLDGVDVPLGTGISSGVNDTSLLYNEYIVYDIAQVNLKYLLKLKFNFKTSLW

This experiment has as its target T1, Human PARP-1 enzyme (Homo sapiens, UniProt P09874).
T1 construct: purchased Trevigen
In words: In vitro Scintillation Proximity Assay (SPA) for PARP-1 inhibitory activity. The settings on record: read-out: in vitro SPA assay PARP-1 pIC50 (converted). It is filed as biochemical. The gist of the method: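 SPA assay: nicked-DNA-activated PARP-1 (0.1–0.2 μg/ml) ADP-ribosylates biotinylated histones (2 μg/ml) using [3H]-NAD+, 20 min at RT in Tris pH 8/DTT/MgCl2, stopped with 2 mM NAD+. Blank-subtracted cpm expressed as % control; IC50 by linear interpolation, reported as pIC50 (10−5 to 3×10−9 M tested).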
(In general: Scintillation proximity formats need no separation of bound from free tracer.)
As for `CCc1cc2ccc(C(C)(C#N)Cc3cc(N(C)C)nc(OC)n3)cc2[nH]c1=O` (centres unmarked) [Compound 354], the IC50 was 79.4 nM. For `CCc1cc2ccc(C(C)(C#N)Cc3nc(OC)cc(N(C)C)n3)cc2[nH]c1=O` (centres unmarked) [Compound 355] the value was 50.1 nM; for `CCc1cc2ccc(C(C)(C#N)Cc3cc(Cl)nc(C)n3)cc2[nH]c1=O` (centres unmarked) [Compound 365], 126 nM; for `CCc1cc2ccc(C(C)(C#N)CN3CCC(c4ccccc4)CC3)cc2[nH]c1=O` (centres unmarked) [Compound 375], 158 nM. As for `CCc1cc2ccc(C(C)(C#N)CN3CCN(c4ccc(C#N)cn4)CC3)cc2[nH]c1=O` (centres unmarked) [Compound 377], the IC50 was 50.1 nM.

As to `CCc1cc2ccc(C(C)(C#N)Cc3cc(Br)cc4c3OCC4)cc2[nH]c1=O` (centres unmarked) [Compound 378], the IC50 is 79.4 nM. For `CCc1cc2ccc(C(C)(C#N)Cc3cccc4[nH]ccc34)cc2[nH]c1=O` (centres unmarked) [Compound 379] the value was 25.1 nM; for `Cc1cc2ccc([C@](C)(C#N)[C@H]3CCc4ccccc43)cc2[nH]c1=O` [Compound 387], 200 nM; for `Cc1cc2ccc(C(C)(C#N)C3CCc4ccccc43)cc2[nH]c1=O` (centres unmarked) [Compound 392], 126 nM. In the case of `Cc1cc2ccc(C(C)(C#N)C3CCCc4ccccc43)cc2[nH]c1=O` (centres unmarked) [Compound 404], the IC50 was 200 nM. For `Cc1cc2ccc(C(C)(C#N)Cc3cccc(/C=C/CCO)c3)cc2[nH]c1=O` (centres unmarked) [Compound 409] the value was 100 nM.
